# From US11197856B2, “Bicyclic compounds and methods for their use in treating autism” (priority 2013, dated 2021)
# Tests used:
# MeCP2 deficient mice = test: Survival of MeCP2 deficient mice (Rett Syndrome model); details: for survival: MeCP2 deficient mice
# Experimental: We treat hemizygous MeCP2(1lox) male mice with 20 mg/kg/day of cG-2-AllylP or saline, (0.01% BSA, n=15 per group in survival experiment and n=20 in the LTP experiment). The treatments are administered intraperitoneally from 4 weeks after birth. For the survival experiments the treatment is maintained through the course of the experiment. For the LTP experiment the mice are treated until week 9 when they are used for slice preparation.
# MeCP2 deficient mutant mice develop RTT symptoms at about 4-6 weeks of age and […] (Chen et al., 2001. Nat Genet 27: 327-331). We compare the survival of the wild type controls and the MeCP2 deficient animals in vehicle- and cG-2-AllylP-treated groups. Survival is measured weekly from start of treatment (4 weeks) and used to produce Kaplan-Meier survival curves to show the proportion of mice that survive (y axis) at each weekly interval (x axis).
# For the survival measurements, the nocturnal activity analysis and the immunoblot analysis, cG-2-AllylP supplied by Neuren Pharmaceuticals Limited is administered daily via intra-peritoneal injections (20 mg/kg, vehicle=saline, 0.01% BSA). The treatment starts at PI 5 and is maintained throughout the course of the experiments. For intracellular physiology experiments, the mice are injected daily with cG-2-AllylP (20 mg/kg body weight, vehicle=saline, 0.01% BSA) for 2 weeks, from P15 to P28-P32 when they are used for acute slice preparation. For optical imaging experiments, mice are injected with cG-2-AllylP (20 mg/kg body weight, vehicle=saline, 0.01% BSA) daily from the day of the lid suture to the day of imaging.
# Therefore, we administer cG-2-AllylP orally to MeCP2 deficient mice. Briefly, an aqueous solution or other composition containing a pharmaceutically effective amount of cG-2-AllylP (20 or 80 mg/kg per animal) is administered daily.
# [1] = tested on: heterozygous Shank3-deficient mice; test: Shank3-deficient mice: male-female social interactions and ultrasonic vocalizations; format: in vivo; details: Shank3-deficient groups; 15 or 60 mg/kg oral b.i.d 14 days; vs placebo
# Experimental: 1 to 3 month old wild-type and heterozygous Shank3-deficient mice are divided into 4 treatment groups: placebo treated wild-type, placebo treated Shank3-deficient group and two Shank3-deficient cG-2-AllylP treated groups. The animals are given placebo (water) or cG-2-AllylP formulated in water administered orally, b.i.d for 14 days. cG-2-AllylP is administered at two doses: 15 or 60 mg/kg.
# Behavioral assessments are made at several time points, and include analysis of social interactions and ultrasonic social communication, in line with the methodology described by Bozdagi et al. Briefly, male-female social interactions in each treatment group are evaluated. The subject males are group-housed and individually tested in clean cages with clean litter. Each testing session lasts 5 min. […] Videos from the male subjects are subsequently scored by an investigator uninformed of the subject's genotype and treatment group on measures of nose-to-nose sniffing, nose-to-anogenital sniffing and sniffing of other body regions, using Noldus Observer software (Noldus Information Technology, Leesburg, Va., USA). Ultrasonic vocalizations are identified manually by two highly trained investigators blinded to genotype/treatment group information, and summary statistics are calculated using the Avisoft package. […] Data are analysed using an unpaired Student's t-test.
smiles,measurement,setting,value
"C=CC[C@]12CCCN1C(=O)CNC2=O [cG-2-AllylP, (8aS)-Allyl-hexahydropyrrolo[1,2-a]pyrazine-1,4-dione]",life expectancy,"MeCP2 deficient mice; MeCP2-/y mice, 20 mg/kg daily intra-peritoneal from P15",increase in life expectancy
same,survival,MeCP2 deficient mice; 20 mg/kg/day intraperitoneally from 4 weeks,survive substantially longer than saline-treated mice
same,survival,"MeCP2 deficient mice; oral, 20 or 80 mg/kg daily",survival is increased substantially
same,safety concerns,"MeCP2 deficient mice; mecp2 mice, 20 mg/kg/day intraperitoneally",No safety concerns are raised
same,cumulative duration of total social sniffing,[1],significant increase in the cumulative duration of total social sniffing
same,number of ultrasonic vocalizations,[1],increased number of ultrasonic vocalizations
